Assays:
[1] = test system: HIV-1YU2; experiment: Viral infection assay, YU2 Env (wild type and mutants); assay type: cell-based; conditions: for Fold change: mutant/wild-type IC50
Excerpt: HIV-1 Env mutants. Mutations were introduced into the plasmid expressing the fulllength HIV-1YU2 or HIV-1JR-FL Envs using the QuikChange II site-directed mutagenesis protocol or the QuikChange multi site-directed mutagenesis kit (Stratagene). The presence of the desired mutations was confirmed by DNA sequencing. All HIV-1 Env residues are numbered based on alignment with the HXBc2 prototypic sequence, according to current convention.
Production of recombinant HIV-1 expressing luciferase. […] After 48 hours, the supernatant was collected, buffered with 50 mM Hepes pH 7.4 (final concentration) and centrifuged for 5 minutes at 750×g and 4° C. The virus-containing supernatant was used directly or frozen at −80° C.
Viral infection assay. Each test compound was serially diluted in DMSO in a 96-well B&W isoplate (PerkinElmer, Boston, Mass.) using an HP D300 Digital Dispenser, to a final volume of 450 nl. DMSO was used as a control. Viruses pseudotyped with a specific Env were added to each well and incubated briefly at room temperature. Cf2Th-CD4/CCR5 cells were detached with StemPro Accutase Cell Dissociation Reagent (Invitrogen, cat #A11105-01), washed once, and 5000 cells were added to each well. […] Following incubation, the medium was aspirated and cells were lysed with 30 μl of Passive Lysis Buffer (Promega, cat #E1941). The activity of the firefly luciferase, which was used as a reporter protein in the system, was measured with a Centro LB 960 luminometer (Berthold Technologies, Oak Ridge, Tenn.). One hundred microliters of assay buffer (15 mM MgSO4, 15 mM KH2PO4/K2HPO4 pH 7.8, 1 mM ATP and 1 mM DTT) was injected to each well, followed by a 50 μl injection of 1 mM Dluciferin potassium salt (BD Pharmingen, San Jose, Calif.); luminescence was measured for 2 sec. Infection of PBMC was done as above, but 20,000-40,000 cells/well and viruses concentrated by ultracentrifugation were used. After four hours of incubation with viruses, the cells were centrifuged at 200×g for 6 minutes at 4° C., resuspended in 100 μl RPMI-PBMC medium and incubated at 37° C. for an additional 36-40 hours (total 40-44 hours). Supernatant was removed after centrifugation at 400×g for 5 minutes and cells were processed to detect luciferase activity, as described above.

[2] = test system: Cf2Th-CD4/CXCR4 cells; experiment: Viability assay (CellTiterGlo), CD4/CXCR4-expressing target cells; assay type: cell-based
Protocol: Viability Assay. As part of the secondary screen, cells were incubated for ˜20 hours in 384-well plates in a final volume of 45 μl growth medium at 37° C. The plate was equilibrated to room temperature, 15 μl of CellTiterGlo (Promega) was added to each well and luminescence was measured as described above. The viability assay with 18A was done in parallel to the viral infection assay for the same length of time. 18A was diluted using an HP D300 Digital Dispenser in a 96-well B&W isoplate and cells were added. After incubation of 26-30 hours (Cf2Th cells) or 40-44 hours (PBMC). 30 μl (Cf2Th cells) or 100 μl (PBMC) of CellTiterGlo was added and luminescence was measured as described above.

In the case of `O=C(N/N=C/c1ccc(O)cc1)Nc1cccc2nsnc12` [Compound 18A], the IC50 ([1]; YU2 Env D113A) is reported as 6 ± 1.4 µM, the Fold change ([1]; YU2 Env D113A) is reported as 0.7 and the IC50 ([1]; YU2 Env D589L) is reported as 12.1 ± 1.5 µM. It also gave a Fold change ([1]; YU2 Env D589L) of 1.4, an IC50 ([1]; YU2 Env E370A) of 2.3 ± 0.8 µM and a Fold change ([1]; YU2 Env E370A) of 0.3. The IC50 ([1]; YU2 Env E429K) was 9 ± 1.4 µM, the Fold change ([1]; YU2 Env E429K) was 1.1 and the IC50 ([1]; YU2 Env H66A) was 8 ± 0.9 µM. It also gave a Fold change ([1]; YU2 Env H66A) of 1, an IC50 ([1]; YU2 Env H66N) of 4.6 ± 0.5 µM and a Fold change ([1]; YU2 Env H66N) of 0.5. The IC50 ([1]; YU2 Env I108A) was 6.1 ± 0.7 µM, the Fold change ([1]; YU2 Env I108A) was 0.7 and the IC50 ([1]; YU2 Env I109W) was 2.9 ± 0.4 µM. It also gave a Fold change ([1]; YU2 Env I109W) of 0.3, an IC50 ([1]; YU2 Env I285A) of 6.3 ± 1.5 µM and a Fold change ([1]; YU2 Env I285A) of 0.7. For the same molecule, the IC50 ([1]; YU2 Env I309A) was 4.2 ± 1.3 µM, the Fold change ([1]; YU2 Env I309A) was 0.5 and the IC50 ([1]; YU2 Env I371A) was 6.5 ± 0.9 µM. For the same molecule, the Fold change ([1]; YU2 Env I371A) was 0.8, the IC50 ([1]; YU2 Env I420C) was 2.1 ± 0.4 µM and the Fold change ([1]; YU2 Env I420C) was 0.2. The IC50 ([1]; YU2 Env I420S) was 4.8 ± 0.8 µM, the Fold change ([1]; YU2 Env I420S) was 0.6 and the IC50 ([1]; YU2 Env I423R) was 2.4 ± 0.4 µM. The Fold change ([1]; YU2 Env I423R) was 0.3, the IC50 ([1]; YU2 Env K117W) was 6.5 ± 1.1 µM and the Fold change ([1]; YU2 Env K117W) was 0.8. It also gave an IC50 ([1]; YU2 Env L111A) of 10.4 ± 1.6 µM, a Fold change ([1]; YU2 Env L111A) of 1.2 and an IC50 ([1]; YU2 Env L260A) of 3.4 ± 1.5 µM. For the same molecule, the Fold change ([1]; YU2 Env L260A) was 0.4, the IC50 ([1]; YU2 Env L261A) was 4.9 ± 1 µM and the Fold change ([1]; YU2 Env L261A) was 0.6. For the same molecule, the IC50 ([1]; YU2 Env L317A) was 10.2 ± 1.4 µM, the Fold change ([1]; YU2 Env L317A) was 1.2 and the IC50 ([1]; YU2 Env M475A (associated with resistance to BMS-806)) was 10.2 ± 2.6 µM. It also gave a Fold change ([1]; YU2 Env M475A) of 1.2, an IC50 ([1]; YU2 Env N377A) of 3.3 ± 0.6 µM and a Fold change ([1]; YU2 Env N377A) of 0.4. It also gave an IC50 ([1]; YU2 Env P212A) of 10.2 ± 1.5 µM, a Fold change ([1]; YU2 Env P212A) of 1.2 and an IC50 ([1]; YU2 Env Q114N) of 14.8 ± 2.1 µM. For the same molecule, the Fold change ([1]; YU2 Env Q114N) was 1.7, the IC50 ([1]; YU2 Env S110A) was 7.3 ± 1.6 µM and the Fold change ([1]; YU2 Env S110A) was 0.9. It also gave an IC50 ([1]; YU2 Env S110N) of 5.9 ± 1.8 µM, a Fold change ([1]; YU2 Env S110N) of 0.7 and an IC50 ([1]; YU2 Env S375A) of 10 ± 1.3 µM. The Fold change ([1]; YU2 Env S375A) was 1.2, the IC50 ([1]; YU2 Env S375W (associated with resistance to BMS-806)) was 14.6 ± 2.8 µM and the Fold change ([1]; YU2 Env S375W) was 1.7. It also gave an IC50 ([1]; YU2 Env T71A) of 7.1 ± 1.4 µM, a Fold change ([1]; YU2 Env T71A) of 0.8 and an IC50 ([1]; YU2 Env T257A) of 13.2 ± 1.1 µM. It also gave a Fold change ([1]; YU2 Env T257A) of 1.5, an IC50 ([1]; YU2 Env T257S) of 6.9 ± 0.8 µM and a Fold change ([1]; YU2 Env T257S) of 0.8. For the same molecule, the IC50 ([1]; YU2 Env V255A) was 14 ± 1.2 µM, the Fold change ([1]; YU2 Env V255A) was 1.6 and the IC50 ([1]; YU2 Env V255G) was 7.9 ± 1.7 µM. It also gave a Fold change ([1]; YU2 Env V255G) of 0.9, an IC50 ([1]; YU2 Env V255I) of 5.4 ± 1.3 µM and a Fold change ([1]; YU2 Env V255I) of 0.6. For the same molecule, the IC50 ([1]; YU2 Env V255W) was 3.6 ± 1.3 µM, the Fold change ([1]; YU2 Env V255W) was 0.4 and the IC50 ([1]; YU2 Env V430A) was 5.9 ± 0.6 µM. For the same molecule, the Fold change ([1]; YU2 Env V430A) was 0.7, the IC50 ([1]; YU2 Env V430S) was 2.9 ± 0.3 µM and the Fold change ([1]; YU2 Env V430S) was 0.3. For the same molecule, the IC50 ([1]; YU2 Env W69L) was 3.5 ± 0.5 µM, the Fold change ([1]; YU2 Env W69L + S375W) was 1.7 and the Fold change ([1]; YU2 Env W69L) was 0.4. It also gave an IC50 ([1]; YU2 Env W479A) of 1.3 ± 0.2 µM, a Fold change ([1]; YU2 Env W479A) of 0.2 and an IC50 ([1]; YU2 Env W596M) of 9.4 ± 1.4 µM. It also gave a Fold change ([1]; YU2 Env W596M) of 1.1, an IC50 ([1]; YU2 Env double mutant W69L + S375W) of 15 ± 2.5 µM and an IC50 ([1]; YU2 Env wild type) of 8.6 ± 1.4 µM. For the same molecule, the Fold change ([1]; YU2 Env wild type) was 1 and the CC50 [2] was 63 µM.

— US20170298056A1, “SMALL MOLECULE INHIBITORS OF HIV-1 ENTRY AND METHODS OF USE THEREOF” (Dana-Farber Cancer Institute, Inc., priority 2014, published 2017)
